How the values were obtained:
pigweed = assay: Test B pre-/postemergence herbicide test; type: in vivo, Amaranthus retroflexus; conditions: for Pigweed plant response rating: scale 0 (no effect) to 100 (complete control)
How it was run: (§1)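 Flooded paddy rice and barnyardgrass were treated at the 2-leaf stage; upland plantings received compound either on sown seed or on 1- to 4-leaf seedlings. All were kept 13–15 days in a greenhouse and scored visually, 0–100, relative to untreated plants.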

cocklebur = assay: Test B pre-/postemergence herbicide test; type: in vivo, Xanthium strumarium
How it was run: (§2)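 Seeds were planted and treated preemergence with compounds formulated in a non-phytotoxic solvent mixture containing surfactant, while plants at the 1- to 4-leaf stage (2 to 18 cm) received postemergence sprays. Flooded paddy plants were grown to the 2-leaf stage. After 13 to 15 days in a greenhouse, injury was visually rated 0–100 against untreated controls.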

Surinam grass = assay: Test B pre-/postemergence herbicide test; type: in vivo, Urochloa decumbens; conditions: for Surinam Grass plant response rating: scale 0 (no effect) to 100 (complete control)
How it was run: as §1

giant foxtail = assay: Test B pre-/postemergence herbicide test; type: in vivo, Setaria faberi
How it was run: as §1

wheat = assay: Test B postemergence herbicide test; type: in vivo, Triticum aestivum; set-up: key to Wheat plant response rating: 0 = no effect, 100 = complete control
How it was run: (§3)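 Postemergence plants were sprayed with formulated test chemicals at 2 to 18 cm height (1- to 4-leaf stage); paddy species were grown to the 2-leaf stage. After 13 to 15 days in a greenhouse, injury was rated visually against untreated controls on a 0–100 scale (0 = no effect, 100 = complete control).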

corn = assay: Test B pre-/postemergence herbicide test; type: in vivo, Zea mays
How it was run: as §1

wild oat = assay: Test B postemergence herbicide test; type: in vivo, Avena fatua; conditions: scale 0 (no effect) to 100 (complete control)
How it was run: as §3

[1] = system: small flower umbrella sedge; assay: Test B flooded paddy test; type: in vivo, Cyperus difformis; conditions: 1000 g ai/ha, scale 0 to 100 (0 no effect, 100 complete control)
How it was run: as §3

morningglory = assay: Test B pre-/postemergence herbicide test; type: in vivo, Ipomoea coccinea; conditions: for Morningglory plant response rating: scale 0 (no effect) to 100 (complete control)
How it was run: as §2

lambsquarters = assay: Test B pre-/postemergence herbicide test; type: in vivo, Chenopodium album; conditions: for Lambsquarters plant response rating: scale 0 (no effect) to 100 (complete control)
How it was run: as §1

barnyardgrass [2] = assay: Test B flooded paddy test; type: in vivo, Echinochloa crus-galli; conditions: 1000 g ai/ha, scale 0 to 100 (0 no effect, 100 complete control)
How it was run: as §3

rice = assay: Test B flooded paddy test; type: in vivo, Oryza sativa; conditions: 1000 g ai/ha, scale 0 to 100 (0 no effect, 100 complete control)
How it was run: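 After treating 2-leaf paddy plants or 2–18 cm postemergence plants (1 to 4 leaves) with formulated chemical, researchers kept them in a greenhouse for 13–15 days. Effects were judged visually versus controls: 0 indicates none, 100 total control.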

barnyardgrass [3] = assay: Test B pre-/postemergence herbicide test; type: in vivo, Echinochloa crus-galli
How it was run: as §2

velvetleaf = assay: Test B pre-/postemergence herbicide test; type: in vivo, Abutilon theophrasti; conditions: for Velvetleaf plant response rating: scale 0 (no effect) to 100 (complete control)
How it was run: as §1

large crabgrass = assay: Test B pre-/postemergence herbicide test; type: in vivo, Digitaria sanguinalis
How it was run: as §1

[4] = 125 g ai/ha, 0 = no effect, 100 = complete control, preemergence
[5] = 500 g ai/ha, visual rating 0-100, 0 no effect, 100 complete control, preemergence
[6] = postemergence, 125 g ai/ha, visual rating
[7] = postemergence, 500 g ai/ha, visual rating
[8] = 125 g ai/ha; 0 = no effect, 100 = complete control; preemergence
[9] = 500 g ai/ha; visual rating 0-100, 0 no effect, 100 complete control; preemergence
[10] = postemergence, 125 g ai/ha; visual rating, scale 0 (no effect) to 100 (complete control)
[11] = postemergence, 500 g ai/ha; visual rating, scale 0 (no effect) to 100 (complete control)
[12] = 125 g ai/ha, 0 is no effect, 100 is complete control, preemergence
[13] = 125 g ai/ha, visual rating, postemergence
[14] = 125 g ai/ha; 0 is no effect, 100 is complete control; preemergence
[15] = 125 g ai/ha; visual rating, scale 0 (no effect) to 100 (complete control); postemergence
[16] = postemergence, 500 g ai/ha; scale 0 to 100, 0 is no effect, 100 is complete control

SMILES: CC(=NO)c1cccc(NC(=O)c2sc(C(C)(C)C)nc2C)c1 [Compound 195]
- Pigweed plant response rating (0 to 100 scale) (pigweed; [4]): 90
- Plant response rating, Pigweed (pigweed; [5]): 90
- Pigweed plant response rating (pigweed; [6]): 70
- Pigweed plant response rating (pigweed; [7]): 80
- Cocklebur plant response rating (0 to 100 scale) (cocklebur; [8]): 0
- Plant response rating, Cocklebur (cocklebur; [9]): 0
- Cocklebur plant response rating (cocklebur; [10]): 30
- Cocklebur plant response rating (cocklebur; [11]): 60
- Surinam Grass plant response rating (0 to 100 scale) (Surinam grass; [4]): 10
- Plant response rating, Surinam Grass (Surinam grass; [5]): 30
- Surinam Grass plant response rating (Surinam grass; [6]): 10
- Surinam Grass plant response rating (Surinam grass; [7]): 30
- Foxtail, Giant plant response rating (0 to 100 scale) (giant foxtail; [8]): 20
- Plant response rating, Foxtail, Giant (giant foxtail; [9]): 60
- Foxtail, Giant plant response rating (giant foxtail; [10]): 20
- Foxtail, Giant plant response rating (giant foxtail; [11]): 20
- Wheat plant response rating (wheat; postemergence, 125 g ai/ha, visual rating, scale 0 (no effect) to 100 (complete control)): 10
- Wheat plant response rating (wheat; postemergence, 500 g ai/ha, visual rating, scale 0 (no effect) to 100 (complete control)): 20
- Corn plant response rating (0 to 100 scale) (corn; [8]): 0
- Plant response rating, Corn (corn; [9]): 0
- Corn plant response rating (corn; [10]): 20
- Corn plant response rating (corn; [11]): 30
- Oat, Wild plant response rating (wild oat; [6]): 10
- Oat, Wild plant response rating (wild oat; [7]): 20
- Sedge, Umbrella plant response rating ([1]; visual rating, 13 to 15 days): 50
- Morningglory plant response rating (0 to 100 scale) (morningglory; [4]): 10
- Plant response rating, Morningglory (morningglory; [5]): 40
- Morningglory plant response rating (morningglory; [6]): 0
- Morningglory plant response rating (morningglory; [7]): 60
- Lambsquarters plant response rating (0 to 100 scale) (lambsquarters; [4]): 0
- Plant response rating, Lambsquarters (lambsquarters; [5]): 80
- Lambsquarters plant response rating (lambsquarters; [6]): 0
- Lambsquarters plant response rating (lambsquarters; [7]): 60
- Barnyardgrass plant response rating (barnyardgrass [2]; visual rating, 13 to 15 days): 60
- Rice plant response rating (rice; visual rating, 13 to 15 days): 30
- Barnyardgrass plant response rating (0 to 100 scale) (barnyardgrass [3]; [8]): 40
- Plant response rating, Barnyardgrass (barnyardgrass [3]; [9]): 90
- Barnyardgrass plant response rating (barnyardgrass [3]; [10]): 40
- Barnyardgrass plant response rating (barnyardgrass [3]; [11]): 90
- Velvetleaf plant response rating (0 to 100 scale) (velvetleaf; [4]): 10
- Plant response rating, Velvetleaf (velvetleaf; [5]): 20
- Velvetleaf plant response rating (velvetleaf; [6]): 20
- Velvetleaf plant response rating (velvetleaf; [7]): 40
- Crabgrass, Large plant response rating (0 to 100 scale) (large crabgrass; [8]): 80
- Plant response rating, Crabgrass, Large (large crabgrass; [9]): 100
- Crabgrass, Large plant response rating (large crabgrass; [10]): 20
- Crabgrass, Large plant response rating (large crabgrass; [11]): 50

SMILES: CCOC(=O)c1cccc(NC(=O)c2nn(C(C)(C)CC)nc2CC)c1 [Compound 375]
- Plant response rating (0 to 100 scale), Pigweed (pigweed; [12]): 70
- Pigweed plant response rating (pigweed; [13]): 40
- Pigweed plant response rating (pigweed; Postemergence, 500 g ai/ha): 80
- Plant response rating (0 to 100 scale), Cocklebur (cocklebur; [14]): 0
- Cocklebur plant response rating (cocklebur; [15]): 30
- Cocklebur plant response rating (cocklebur; [16]): 60
- Plant response rating (0 to 100 scale), Surinam Grass (Surinam grass; [12]): 40
- Surinam Grass plant response rating (Surinam grass; [13]): 20
- Surinam Grass plant response rating (Surinam grass; Postemergence, 500 g ai/ha): 30
- Plant response rating (0 to 100 scale), Foxtail, Giant (giant foxtail; [14]): 50
- Foxtail, Giant plant response rating (giant foxtail; [15]): 40
- Foxtail, Giant plant response rating (giant foxtail; [16]): 70
- Wheat plant response rating (wheat; 125 g ai/ha, visual rating, scale 0 (no effect) to 100 (complete control), postemergence): 30
- Wheat plant response rating (wheat; 500 g ai/ha, scale 0 to 100, 0 no effect, 100 complete control, preemergence): 30
- Wheat plant response rating (wheat; Postemergence, 500 g ai/ha, scale 0 (no effect) to 100 (complete control)): 40
- Plant response rating (0 to 100 scale), Corn (corn; [14]): 0
- Corn plant response rating (corn; [15]): 20
- Corn plant response rating (corn; [16]): 40
- Oat, Wild plant response rating (wild oat; [13]): 40
- Oat, Wild plant response rating (wild oat; Postemergence, 500 g ai/ha): 50
- Sedge, Umbrella plant response rating [1]: 80
- Plant response rating (0 to 100 scale), Morningglory (morningglory; [12]): 10
- Morningglory plant response rating (morningglory; [13]): 20
- Morningglory plant response rating (morningglory; Postemergence, 500 g ai/ha): 40
- Plant response rating (0 to 100 scale), Lambsquarters (lambsquarters; [12]): 50
- Lambsquarters plant response rating (lambsquarters; [13]): 20
- Lambsquarters plant response rating (lambsquarters; Postemergence, 500 g ai/ha): 40
- Barnyardgrass plant response rating (barnyardgrass [2]): 40
- Rice plant response rating (rice): 40
- Plant response rating (0 to 100 scale), Barnyardgrass (barnyardgrass [3]; [14]): 20
- Barnyardgrass plant response rating (barnyardgrass [3]; [15]): 30
- Barnyardgrass plant response rating (barnyardgrass [3]; [16]): 70
- Plant response rating (0 to 100 scale), Velvetleaf (velvetleaf; [12]): 30
- Velvetleaf plant response rating (velvetleaf; [13]): 70
- Velvetleaf plant response rating (velvetleaf; Postemergence, 500 g ai/ha): 90
- Plant response rating (0 to 100 scale), Crabgrass, Large (large crabgrass; [14]): 20
- Crabgrass, Large plant response rating (large crabgrass; [15]): 20
- Crabgrass, Large plant response rating (large crabgrass; [16]): 40
